Counter-ions that a name gives are not always drawn.
Target: T1, IRAK4 (Homo sapiens, UniProt Q9NWZ3)
T1 construct: His (N); TEV cleavage site (N)
T1 sequence (Q9NWZ3 1-460): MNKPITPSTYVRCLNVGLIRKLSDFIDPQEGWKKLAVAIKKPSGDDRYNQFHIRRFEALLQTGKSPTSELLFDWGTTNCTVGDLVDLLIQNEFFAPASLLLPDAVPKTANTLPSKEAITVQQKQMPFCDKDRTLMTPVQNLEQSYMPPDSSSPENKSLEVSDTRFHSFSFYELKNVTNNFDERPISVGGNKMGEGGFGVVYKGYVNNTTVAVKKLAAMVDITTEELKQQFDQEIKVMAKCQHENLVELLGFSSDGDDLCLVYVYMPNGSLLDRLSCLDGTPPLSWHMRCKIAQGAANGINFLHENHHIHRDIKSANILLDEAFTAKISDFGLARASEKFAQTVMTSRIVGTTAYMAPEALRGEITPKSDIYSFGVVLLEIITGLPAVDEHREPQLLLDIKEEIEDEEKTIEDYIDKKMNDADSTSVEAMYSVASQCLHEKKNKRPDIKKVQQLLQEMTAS
Assay: IRAK4 Enzymatic Assay
Assay type: biochemical
Settings: His-TEV-IRAK4 20 ng/well, ATP 2 μM, STK1-biotin peptide 300 nM, 3 hours at 30° C., FlashPlate radioactivity
How it was run: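 Radiometric FlashPlate readout: biotin-STK1 substrate (300 nM) captured on streptavidin after EDTA stop and washes. Reaction used His-TEV-IRAK4 (20 ng/well), 2 μM [^33P]-spiked ATP and compound (1 nM-20 μM), incubated 3 h at 30 °C in 50 mM HEPES pH 7.0, 10 mM MgCl2, 5 mM MnCl2, 2 mM DTT.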

| IC50 [nM] | Compound |
| --- | --- |
| < 100 | Cn1cc(-c2cccc(-c3ncc(-c4cnn([C@H]5CC[C@H](C(=O)NC(C)(C)C)CC5)c4)cn3)c2)cn1 [Example 192, Trans-4-(4-{2-[3-(1-Methyl-1H-pyrazol-4-yl)-phenyl]-pyrimidin-5-yl}-pyrazol-1-yl)-cyclohexanecarboxylic acid tert-butylamide] |
| < 100 | Cn1cc(-c2cccc(-c3ncc(-c4cnn([C@H]5CC[C@H](C(=O)N6CCOCC6)CC5)c4)cn3)c2)cn1 [Example 162, Trans-[4-(4-{2-[3-(1-Methyl-1H-pyrazol-4-yl)-phenyl]-pyrimidin-5-yl}-pyrazol-1-yl)-cyclohexyl]-morpholin-4-yl-methanone] |
| < 100 | Cn1cc(-c2cccc(-c3ncc(-c4cnn([C@H]5CC[C@H](C(=O)NCC#N)CC5)c4)cn3)c2)cn1 [Example 230, trans-4-(4-{2-[3-(1-Methyl-1H-pyrazol-4-yl)-phenyl]-pyrimidin-5-yl}-pyrazol-1-yl)-cyclohexanecarboxylic acid cyanomethyl-amide] |
| < 100 | Cn1cc(-c2cccc(-c3ncc(-c4cnn(C5CCCS(=O)(=O)C5)c4)cn3)c2)cn1 (centres unmarked) [Example 177, 5-[1-(1,1-Dioxo-hexahydro-1l6-thiopyran-3-yl)-1H-pyrazol-4-yl]-2-[3-(1-methyl-1H-pyrazol-4-yl)-phenyl]-pyrimidin] |
| 1000 to 5000 | CN1CCN(C(=O)CCn2cc(-c3cnc(-c4cccc(-c5cnn(C)c5)c4)nc3)cn2)CC1 [Example 102, 1-(4-Methyl-piperazin-1-yl)-3-(4-{2-[3-(1-methyl-1H-pyrazol-4-yl)-phenyl]-pyrimidin-5-yl}-pyrazol-1-yl)-propan-1-one] |
| 100 to 1000 | Cn1cc(-c2cccc(-c3ncc(-c4cnn(C5CCCC(=O)C5)c4)cn3)c2)cn1 (centres unmarked) [Example 195, 3-(4-{2-[3-(1-Methyl-1H-pyrazol-4-yl)-phenyl]-pyrimidin-5-yl}-pyrazol-1-yl)-cyclohexanone] |
| < 100 | Cn1cc(-c2cccc(-c3ncc(-c4cnn([C@H]5CC[C@H](N6CCOCC6=O)CC5)c4)cn3)c2)cn1 [Example 254, 4-[4-(4-{2-[3-(1-Methyl-1H-pyrazol-4-yl)-phenyl]-pyrimidin-5-yl}-pyrazol-1-yl)-cyclohexyl]-morpholin-3-one] |
| 100 to 1000 | CC(C)n1cc(-c2cccc(-c3ncc(-c4cnn(C5CCNCC5)c4)cn3)c2)cn1 [Example 20, 2-[3-(1-Isopropyl-1H-pyrazol-4-yl)-phenyl]-5-(1-piperidin-4-yl-1H-pyrazol-4-yl)-pyrimidine hydrochloride] |
| 100 to 1000 | Cn1cc(-c2cccc(-c3ncc(-c4cnn(CC(=O)N5CCOCC5)c4)cn3)c2)cn1 [Example 36, 2-(4-{2-[3-(1-Methyl-1H-pyrazol-4-yl)-phenyl]-pyrimidin-5-yl}-pyrazol-1-yl)-1-morpholin-4-yl-ethanone] |
| 100 to 1000 | Cn1cc(-c2cccc(-c3ncc(-c4cnn(CCC5CCOC5)c4)cn3)c2)cn1 (centres unmarked) [Example 131, 2-[3-(1-Methyl-1H-pyrazol-4-yl)-phenyl]-5-{1-[2-(tetrahydro-furan-3-yl)-ethyl]-1H-pyrazol-4-yl}-pyrimidine] |
| 1000 to 5000 | CC(C)OCC(CO)n1cc(-c2cnc(-c3cccc(-c4cnn(C)c4)c3)nc2)cn1 (centres unmarked) [Example 214, 3-Isopropoxy-2-(4-{2-[3-(1-methyl-1H-pyrazol-4-yl)-phenyl]-pyrimidin-5-yl}-pyrazol-1-yl)-propan-1-ol] |
| < 100 | Cn1cc(-c2cccc(-c3ncc(-c4cnn([C@H]5CC[C@H](C(=O)NCCCO)CC5)c4)cn3)c2)cn1 [Example 190, Trans-4-(4-{2-[3-(1-Methyl-1H-pyrazol-4-yl)-phenyl]-pyrimidin-5-yl}-pyrazol-1-yl)-cyclohexanecarboxylic acid (3-hydroxy-propyl)-amide] |
| 100 to 1000 | CNC(=O)[C@H]1CCC[C@H](n2cc(-c3cnc(-c4cccc(-c5cnn(C)c5)c4)nc3)cn2)C1 (relative stereo) [Example 181, trans-3-(4-{2-[3-(1-Methyl-1H-pyrazol-4-yl)-phenyl]-pyrimidin-5-yl}-pyrazol-1-yl)-cyclohexanecarboxylic acid methylamide] |
| < 100 | Cn1cc(-c2cccc(-c3ncc(-c4cnn([C@H]5CC[C@H](C(=O)N6CC[C@@H](O)C6)CC5)c4)cn3)c2)cn1 [Example 186, ((R)-3-Hydroxy-pyrrolidin-1-yl)-[4-(4-{2-[3-(1-methyl-1H-pyrazol-4-yl)-phenyl]-pyrimidin-5-yl}-pyrazol-1-yl)-cyclohexyl]-methanone] |
| < 100 | CC(=O)N1CCC(n2cc(-c3cnc(-c4cccc(-c5cnn(C)c5)c4)nc3)cn2)C(F)C1 (stereo not drawn) [Example 263, Cis-1-[3-Fluoro-4-(4-{2-[3-(1-methyl-1H-pyrazol-4-yl)-phenyl]-pyrimidin-5-yl}-pyrazol-1-yl)-piperidin-1-yl]-ethanone] |
| < 100 | Cn1cc(-c2cccc(-c3ncc(-c4cnn([C@H]5CC[C@H](O)CC5)c4)cn3)c2)cn1 [Example 182, Trans-4-(4-{2-[3-(1-Methyl-1H-pyrazol-4-yl)-phenyl]-pyrimidin-5-yl}-pyrazol-1-yl)-cyclohexanol] |
| < 100 | CC(=O)N1CCC(n2cc(-c3cnc(-c4cccc(-c5cnn(C)c5)c4)nc3)cn2)C(F)(F)C1 (centres unmarked) [Example 284, 1-[3,3-Difluoro-4-(4-{2-[3-(1-methyl-1H-pyrazol-4-yl)-phenyl]-pyrimidin-5-yl}-pyrazol-1-yl)-piperidin-1-yl]-ethanone] |
| 100 to 1000 | CC(C)[C@H](CO)NC(=O)[C@H]1CC[C@H](n2cc(-c3cnc(-c4cccc(-c5cnn(C)c5)c4)nc3)cn2)CC1 [Example 163, Trans-4-(4-{2-[3-(1-Methyl-1H-pyrazol-4-yl)-phenyl]-pyrimidin-5-yl}-pyrazol-1-yl)-cyclohexanecarboxylic acid ((R)-1-hydroxymethyl-2-methyl-propyl)-amide] |
| 100 to 1000 | c1cncc(-c2cccc(-c3ncc(-c4cnn(C5CCNCC5)c4)cn3)c2)c1 [Example 2, 5-(1-(piperidin-4-yl)-1H-pyrazol-4-yl)-2-(3-(pyridin-3-yl)phenyl)pyrimidine hydrochloride] |
| < 100 | Cn1cc(-c2cccc(-c3ncc(-c4cnn([C@H]5CC[C@H](OCC6CC6)CC5)c4)cn3)c2)cn1 [Example 220, trans-5-[1-(4-Cyclopropylmethoxy-cyclohexyl)-1H-pyrazol-4-yl]-2-[3-(1-methyl-1H-pyrazol-4-yl)-phenyl]-pyrimidine] |
| 100 to 1000 | Cn1cc(-c2cccc(-c3ncc(-c4cnn(C5CCN(S(C)(=O)=O)CC5)c4)cn3)c2)cn1 [Example 76, 5-[1-(1-Methanesulfonyl-piperidin-4-yl)-1H-pyrazol-4-yl]-2-[3-(1-methyl-1H-pyrazol-4-yl)-phenyl]-pyrimidine] |
| 100 to 1000 | Cn1cc(-c2cccc(-c3ncc(-c4cnn(CCN5CCOCC5)c4)cn3)c2)cn1 [Example 10, 4-[2-(4-{2-[3-(1-Methyl-1H-pyrazol-4-yl)-phenyl]-pyrimidin-5-yl}-pyrazol-1-yl)-ethyl]-morpholine] |
| 100 to 1000 | CN(C)C(=O)C1CC2(C1)CC(n1cc(-c3cnc(-c4cccc(-c5cnn(C)c5)c4)nc3)cn1)C2 (centres unmarked) [Example 222, 6-(4-{2-[3-(1-Methyl-1H-pyrazol-4-yl)-phenyl]-pyrimidin-5-yl}-pyrazol-1-yl)-spiro[3.3]heptane-2-carboxylic acid dimethylamide] |
| < 100 | CO[C@H]1CC[C@H](n2cc(-c3cnc(-c4cccc(-c5cnn(C)c5)c4)nc3)cn2)CC1 [Example 253, trans-5-[1-(4-Methoxy-cyclohexyl)-1H-pyrazol-4-yl]-2-[3-(1-methyl-1H-pyrazol-4-yl)-phenyl]-pyrimidine] |
| 1000 to 5000 | Cn1cc(-c2cccc(-c3ncc(-c4cnn(C5CCOCC5CN5CCOCC5)c4)cn3)c2)cn1 (centres unmarked) [Example 271, 4-[4-(4-{2-[3-(1-Methyl-1H-pyrazol-4-yl)-phenyl]-pyrimidin-5-yl}-pyrazol-1-yl)-tetrahydro-pyran-3-ylmethyl]-morpholine] |
| < 100 | c1cc(-c2cn[nH]c2)cc(-c2ncc(-c3cnn(C4CCNCC4)c3)cn2)c1 [Example 18, 5-(1-Piperidin-4-yl-1H-pyrazol-4-yl)-2-[3-(1H-pyrazol-4-yl)-phenyl]-pyrimidine hydrochloride] |
| 1000 to 5000 | Cn1cc(-c2cccc(-c3ncc(-c4cnn(C5CCNCC5)c4)cn3)c2F)cn1 [Example 48, 2-[2-Fluoro-3-(1-methyl-1H-pyrazol-4-yl)-phenyl]-5-(1-piperidin-4-yl-1H-pyrazol-4-yl)-pyrimidine Formate] |
| 1000 to 5000 | CN(C)C(=O)[C@H]1CC[C@H](n2cc(-c3cnc(-c4cccc(-c5ccc(Cl)nn5)c4)nc3)cn2)CC1 [Example 234, Trans-4-(4-{2-[3-(6-Chloro-pyridazin-3-yl)-phenyl]-pyrimidin-5-yl}-pyrazol-1-yl)-cyclohexanecarboxylic acid dimethylamide] |
| 100 to 1000 | Cn1cc(-c2cccc(-c3ncc(-c4cnn([C@H]5CC[C@@H](N)CC5)c4)cn3)c2)cn1 [Example 156, 4-(4-{2-[3-(1-Methyl-1H-pyrazol-4-yl)-phenyl]-pyrimidin-5-yl}-pyrazol-1-yl)-cyclohexylamine] |

— patent publication US9216991B2 (Ares Trading S.A., priority 2012, dated 2015)
